Source: US20090253757A1, “Plant protection agents” (priority 1996, published 2009)

Test system: Erysiphe graminis
Assay: Activity against Erysiphe graminis on barley (residual protective / systemic)
Format: in vivo
Source text: A synergistic effect is present if the activity of the active ingredient combination is greater than the sum of activities of the individual components. The activity E to be expected for a given active ingredient combination obeys the so-called COLBY formula and may be calculated as follows (COLBY, S. R. “Calculating synergistic and antagonistic responses of herbicide combination”. Weeds, Vol. 15, pages 20-22; 1967): ppm=milligrams active ingredient (=ai) per litre spray mixture X=% activity from active ingredient I during application of p ppm of active ingredient Y=% activity from active ingredient II during application of q ppm of active ingredient The expected (additive) activity of active ingredients I+II during application of […] active ingredient is, according to Colby If the activity actually observed (O) is greater than the expected activity (E), then the combination is super-additive in its activity, i.e. there is a synergistic effect ([…] factor). Barley plants of approximately 8 cm height are sprayed until dripping wet with an aqueous spray mixture prepared from wettable powder of the active ingredient mixture, and 3 to 4 hours later are dusted with conidia of the fungus. The infected plants are placed in a greenhouse at […]. 12 days after infection, the fungal attack is evaluated. An aqueous spray mixture prepared from wettable powder of the active ingredient mixture is poured onto barley plants of approximately 8 cm height. […] 48 hours later, the plants are dusted with conidia of the fungus. The infected plants are placed in a greenhouse at 22° C. 12 days after infection, the fungal attack is evaluated.

Structure (SMILES)	% activity found O (active ingredient I 0.1 mg/litre alone)	% activity found O (active ingredient I 1.0 mg/litre alone)	inhibition at 0.1 µg/mL (Blumeria graminis, active ingredient IIA 0.1 mg/litre alone, read-out: % activity found O)	inhibition at 0.5 µg/mL (Blumeria graminis, active ingredient IIA 0.5 mg/litre alone, read-out: % activity found O)	inhibition at 1 µg/mL (Blumeria graminis, active ingredient IIA 1.0 mg/litre alone, read-out: % activity found O)	inhibition at 10 µg/mL (Blumeria graminis, active ingredient IIA 10.0 mg/litre alone, read-out: % activity found O)
CON=C(C(=O)OC)c1ccccc1CON=C(C)c1cccc(C(F)(F)F)c1 [I, 2-[α-{[(α-methyl-3-trifluoromethyl-benzyl)imino]-oxy}-o-tolyl]-glyoxylic acid-methylester-O-methyloxime]	6%	30%	–	–	–	–
Fc1ccc(Oc2ccnc3cc(Cl)cc(Cl)c23)cc1 [IIA, 5,7-dichloro-4-(4-fluorophenoxy)quinoline]	–	–	4%	6%	8%	21%
